Source: PubChem BioAssay (NCI)
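Growth conditions: 96-well plates. Treatment: test compound, 48 hours, 5 concentrations. Analysis: linear interpolation between bracketing concentrations; unreached endpoints set to highest concentration. TGI denotes the concentration required for complete inhibition of growth.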

Tests used:
Assay in all cases: growth of human tumour cells (NCI), 48 h
786-0 renal = test system: 786-0 renal
A549 NSCLC = test system: A549 NSCLC
CCRF-CEM leukemia = test system: CCRF-CEM leukemia
DU-145 prostate = test system: DU-145 prostate
EKVX NSCLC = test system: EKVX NSCLC
HT29 colon = test system: HT29 colon
KM12 colon = test system: KM12 colon
M14 melanoma = test system: M14 melanoma
NCI-H23 lung = test system: NCI-H23 lung
OVCAR-5 ovarian = test system: OVCAR-5 ovarian
PC-3 prostate = test system: PC-3 prostate
SF-268 CNS = test system: SF-268 CNS
SF-539 CNS = test system: SF-539 CNS
SK-MEL-5 melanoma = test system: SK-MEL-5 melanoma
SNB-19 CNS = test system: SNB-19 CNS
SR leukemia = test system: SR leukemia
UO-31 renal = test system: UO-31 renal
A498 renal = test system: A498 renal
CAKI-1 renal = test system: CAKI-1 renal

| Compound | TGI (786-0 renal) [µM] | TGI (A549 NSCLC) [µM] | TGI (CCRF-CEM leukemia) [µM] | TGI (DU-145 prostate) [µM] | TGI (EKVX NSCLC) [µM] | TGI (HT29 colon) [µM] | TGI (KM12 colon) [µM] | TGI (M14 melanoma) [µM] | TGI (NCI-H23 lung) [µM] | TGI (OVCAR-5 ovarian) [µM] | TGI (PC-3 prostate) [µM] | TGI (SF-268 CNS) [µM] | TGI (SF-539 CNS) [µM] | TGI (SK-MEL-5 melanoma) [µM] | TGI (SNB-19 CNS) [µM] | TGI (SR leukemia) [µM] | TGI (UO-31 renal) [µM] | TGI (A498 renal) [µM] | TGI (CAKI-1 renal) [µM] |
| --- | --- | --- | --- | --- | --- | --- | --- | --- | --- | --- | --- | --- | --- | --- | --- | --- | --- | --- | --- |
| CCc1n[nH]c(=O)n1NC(=O)c1ccccc1C(=O)O | > 100 | > 100 | > 100 | > 100 | > 100 | > 100 | > 100 | > 100 | > 100 | > 100 | > 100 | > 100 | > 100 | > 100 | > 100 | > 100 | > 100 | – | – |
| O=C1CCCCC[C@]12SC[C@H]1CON=C12 | > 100 | > 100 | > 100 | > 100 | > 100 | > 100 | > 100 | 62 | > 100 | > 100 | – | – | > 100 | > 100 | > 100 | > 100 | > 100 | 44.7 | 58 |
| COc1cc(C(=O)Nc2c3ccccc3nc3ccccc23)cc(OC)c1OC | > 100 | > 100 | > 100 | > 100 | > 100 | > 100 | > 100 | > 100 | > 100 | > 100 | > 100 | > 82 | > 100 | > 100 | > 100 | – | > 100 | – | > 67 |
| CC(=O)c1c(-c2ccccc2)c(-c2ccc(OCCN(C)C)cc2)n2ccccc12 | 32.2 | 50.7 | 61.1 | 31.8 | 43.8 | 13.6 | 26.5 | 30.8 | 36.7 | > 100 | 35.5 | 33.1 | 27.1 | 24.1 | 40.4 | – | 32.1 | 39.3 | 37.1 |
| CC(NC(=O)C(N)CC(=O)O)NC(=O)N1CCOCC1 (stereo not given) | > 100 | > 100 | > 100 | > 100 | > 100 | > 100 | > 100 | > 100 | > 100 | > 100 | > 100 | > 100 | > 100 | > 100 | > 100 | – | > 100 | > 100 | > 100 |
| CC(C)CC1[C@@H](OCc2ccccc2)COS(=O)(=O)N1Cc1ccccc1 (stereo not given in full) | > 100 | > 100 | > 100 | > 100 | > 100 | > 100 | > 100 | > 100 | 75.2 | > 100 | > 100 | > 100 | > 100 | > 100 | > 100 | – | 97.6 | > 100 | > 100 |
